Results as given in patent publication US12617758B2, “Quinazoline derivative having FLT3 inhibitory activity, and use thereof” (INDUSTRY-UNIVERSITY COOPERATION FOUNDATION HANYANG …, priority 2020, dated 2026).
Where two headings read alike, the source gives them in different places.

What was measured:
Format in all cases: biochemical
AXL = AXL (Homo sapiens, UniProt P30530); assay: Kinase panel screening; details: single dose of 10 μM, read-out: % inhibition rate
Aurora A = Aurora A (Homo sapiens, UniProt O14965); assay: Kinase panel screening; details: single dose of 10 μM, read-out: % inhibition rate
FLT1/VEGFR1 = FLT1/VEGFR1 (Homo sapiens, UniProt P17948); assay: Kinase panel screening; details: single dose of 10 μM, read-out: % inhibition rate
FGFR3 = FGFR3 (Homo sapiens, UniProt P22607); assay: Kinase panel screening; details: single dose of 10 μM, read-out: % inhibition rate
FLT3 = target: T1, FLT3 (Homo sapiens, UniProt P36888); assay: FLT3 enzyme activity (IC50)
T1 sequence (P36888 27-993): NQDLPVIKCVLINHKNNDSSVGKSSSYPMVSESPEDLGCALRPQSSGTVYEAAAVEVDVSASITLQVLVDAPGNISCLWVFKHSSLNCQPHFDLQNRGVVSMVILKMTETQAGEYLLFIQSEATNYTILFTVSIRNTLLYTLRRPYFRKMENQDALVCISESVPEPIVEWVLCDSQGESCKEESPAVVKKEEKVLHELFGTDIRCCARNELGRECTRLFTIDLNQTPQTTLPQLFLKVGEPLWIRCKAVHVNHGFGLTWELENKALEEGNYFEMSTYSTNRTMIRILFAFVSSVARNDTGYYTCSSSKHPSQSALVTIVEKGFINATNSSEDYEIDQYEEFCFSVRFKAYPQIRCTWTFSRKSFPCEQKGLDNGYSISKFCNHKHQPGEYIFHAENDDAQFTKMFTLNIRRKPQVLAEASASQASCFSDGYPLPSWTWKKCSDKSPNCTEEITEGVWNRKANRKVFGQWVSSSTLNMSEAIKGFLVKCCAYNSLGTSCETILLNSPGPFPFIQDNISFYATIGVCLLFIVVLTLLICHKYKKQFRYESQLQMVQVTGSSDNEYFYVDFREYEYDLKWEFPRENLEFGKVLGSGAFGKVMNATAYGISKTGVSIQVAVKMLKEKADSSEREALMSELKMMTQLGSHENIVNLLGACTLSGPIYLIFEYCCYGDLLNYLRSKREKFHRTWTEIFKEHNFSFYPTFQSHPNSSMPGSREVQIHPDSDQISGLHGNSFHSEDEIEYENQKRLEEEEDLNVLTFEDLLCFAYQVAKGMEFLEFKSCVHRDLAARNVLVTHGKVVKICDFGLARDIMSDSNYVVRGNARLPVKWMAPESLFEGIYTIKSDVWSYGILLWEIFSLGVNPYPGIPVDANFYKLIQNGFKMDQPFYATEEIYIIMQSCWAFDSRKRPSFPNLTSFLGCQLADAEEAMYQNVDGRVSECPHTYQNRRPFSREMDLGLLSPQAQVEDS
Text: Experimental Example 1. Measurement of FLT3 and FLT Enzyme Activity
Changes in FLT3 and FLT enzyme activities by treatment with the quinazoline derivatives of the following Table 1 according to the present invention were confirmed by IC50.

ERK1 = ERK1 (Homo sapiens, UniProt P27361); assay: Kinase panel screening; details: single dose of 10 μM, read-out: % inhibition rate
RIPK3 = RIPK3 (Homo sapiens, UniProt Q9Y572); assay: Kinase panel screening; details: single dose of 10 μM, read-out: % inhibition rate
Experimental: Next, kinase panel screening for Compound 7d was investigated for 36 different kinases at a single dose of 10 μM (FIG. 1 and Table 3).

SYK = SYK (Homo sapiens, UniProt P43405); assay: Kinase panel screening; details: single dose of 10 μM, read-out: % inhibition rate
EGFR = EGFR (Homo sapiens, UniProt P00533); assay: Kinase panel screening; details: single dose of 10 μM, read-out: % inhibition rate
PLK1 = PLK1 (Homo sapiens, UniProt P53350); assay: Kinase panel screening; details: single dose of 10 μM, read-out: % inhibition rate
c-Kit = c-Kit (Homo sapiens, UniProt P10721); assay: Kinase panel screening; details: single dose of 10 μM
FLT3 (D835Y) = FLT3 (D835Y) (Homo sapiens, UniProt P36888, D835Y); assay: Inhibitory activity against FLT3 mutants
Text: (§1) Subsequently, the inhibitory activity of Compound 7d against other different FLT3 mutants was additionally investigated and is shown in Table 2. […] Further, Compound 7d was also strong against FLT3 mutations located in the TKD.

FLT3 (F594_R595 ins EY) = FLT3 (F594_R595 ins EY) (Homo sapiens, UniProt P36888, INS594EY); assay: Inhibitory activity against FLT3 mutants; details: insertion of 2 amino acids
Text: as §1

FLT3 (F594_R595 ins R) = FLT3 (F594_R595 ins R) (Homo sapiens, UniProt P36888, INS594R); assay: Inhibitory activity against FLT3 mutants; details: insertion of 1 amino acid
Text: as §1

[1] = target: FLT3 (Y591_V592 ins VDFREYEYD) (Homo sapiens, UniProt P36888, INS591VDFREYEYD); assay: Inhibitory activity against FLT3 mutants; details: insertion of 9 amino acids
Text: as §1

MEK1 = MEK1 (Homo sapiens, UniProt Q02750); assay: Kinase panel screening; details: single dose of 10 μM, read-out: % inhibition rate
CAMKK1 = CAMKK1 (Homo sapiens, UniProt Q8N5S9); assay: Kinase panel screening; details: single dose of 10 μM, read-out: % inhibition rate
FYN = FYN (Homo sapiens, UniProt P06241); assay: Kinase panel screening; details: single dose of 10 μM, read-out: % inhibition rate
IGF1R = IGF1R (Homo sapiens, UniProt P08069); assay: Kinase panel screening; details: single dose of 10 μM, read-out: % inhibition rate
Chain of IGF1R (P08069 31-1367, species assumed): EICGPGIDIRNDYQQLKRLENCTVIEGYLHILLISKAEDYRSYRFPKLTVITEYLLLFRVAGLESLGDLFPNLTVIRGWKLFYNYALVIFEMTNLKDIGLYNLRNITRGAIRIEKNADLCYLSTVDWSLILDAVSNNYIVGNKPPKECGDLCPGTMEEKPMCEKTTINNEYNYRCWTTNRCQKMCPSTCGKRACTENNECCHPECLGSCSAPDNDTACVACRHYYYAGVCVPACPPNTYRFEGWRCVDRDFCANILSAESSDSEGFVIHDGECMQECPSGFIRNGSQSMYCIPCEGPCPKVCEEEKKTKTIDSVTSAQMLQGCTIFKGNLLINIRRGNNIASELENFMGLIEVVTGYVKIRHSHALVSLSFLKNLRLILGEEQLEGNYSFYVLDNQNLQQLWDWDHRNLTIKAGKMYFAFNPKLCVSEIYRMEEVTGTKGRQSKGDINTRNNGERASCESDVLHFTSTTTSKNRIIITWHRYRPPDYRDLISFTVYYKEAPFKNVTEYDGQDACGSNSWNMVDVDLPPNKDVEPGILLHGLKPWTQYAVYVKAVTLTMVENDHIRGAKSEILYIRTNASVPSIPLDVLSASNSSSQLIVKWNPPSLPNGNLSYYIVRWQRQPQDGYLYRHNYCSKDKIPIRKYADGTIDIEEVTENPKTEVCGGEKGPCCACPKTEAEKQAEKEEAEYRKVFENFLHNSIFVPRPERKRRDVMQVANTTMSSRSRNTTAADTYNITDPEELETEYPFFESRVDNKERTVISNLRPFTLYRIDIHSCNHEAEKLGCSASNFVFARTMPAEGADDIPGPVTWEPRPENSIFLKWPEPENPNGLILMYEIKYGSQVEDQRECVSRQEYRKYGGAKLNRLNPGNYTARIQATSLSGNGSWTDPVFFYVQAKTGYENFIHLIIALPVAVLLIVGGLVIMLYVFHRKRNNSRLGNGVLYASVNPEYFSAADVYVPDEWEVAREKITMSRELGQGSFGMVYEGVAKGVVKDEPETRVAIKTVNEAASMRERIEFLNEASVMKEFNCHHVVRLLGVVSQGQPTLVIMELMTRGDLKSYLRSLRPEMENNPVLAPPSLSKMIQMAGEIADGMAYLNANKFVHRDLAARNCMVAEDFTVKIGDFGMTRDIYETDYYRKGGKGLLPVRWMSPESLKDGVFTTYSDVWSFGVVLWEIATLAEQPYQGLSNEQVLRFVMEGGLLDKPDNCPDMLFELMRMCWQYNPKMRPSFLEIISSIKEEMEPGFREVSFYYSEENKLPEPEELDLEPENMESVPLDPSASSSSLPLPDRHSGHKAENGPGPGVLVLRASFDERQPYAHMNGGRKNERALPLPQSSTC

Chain of c-Kit (P10721 26-976): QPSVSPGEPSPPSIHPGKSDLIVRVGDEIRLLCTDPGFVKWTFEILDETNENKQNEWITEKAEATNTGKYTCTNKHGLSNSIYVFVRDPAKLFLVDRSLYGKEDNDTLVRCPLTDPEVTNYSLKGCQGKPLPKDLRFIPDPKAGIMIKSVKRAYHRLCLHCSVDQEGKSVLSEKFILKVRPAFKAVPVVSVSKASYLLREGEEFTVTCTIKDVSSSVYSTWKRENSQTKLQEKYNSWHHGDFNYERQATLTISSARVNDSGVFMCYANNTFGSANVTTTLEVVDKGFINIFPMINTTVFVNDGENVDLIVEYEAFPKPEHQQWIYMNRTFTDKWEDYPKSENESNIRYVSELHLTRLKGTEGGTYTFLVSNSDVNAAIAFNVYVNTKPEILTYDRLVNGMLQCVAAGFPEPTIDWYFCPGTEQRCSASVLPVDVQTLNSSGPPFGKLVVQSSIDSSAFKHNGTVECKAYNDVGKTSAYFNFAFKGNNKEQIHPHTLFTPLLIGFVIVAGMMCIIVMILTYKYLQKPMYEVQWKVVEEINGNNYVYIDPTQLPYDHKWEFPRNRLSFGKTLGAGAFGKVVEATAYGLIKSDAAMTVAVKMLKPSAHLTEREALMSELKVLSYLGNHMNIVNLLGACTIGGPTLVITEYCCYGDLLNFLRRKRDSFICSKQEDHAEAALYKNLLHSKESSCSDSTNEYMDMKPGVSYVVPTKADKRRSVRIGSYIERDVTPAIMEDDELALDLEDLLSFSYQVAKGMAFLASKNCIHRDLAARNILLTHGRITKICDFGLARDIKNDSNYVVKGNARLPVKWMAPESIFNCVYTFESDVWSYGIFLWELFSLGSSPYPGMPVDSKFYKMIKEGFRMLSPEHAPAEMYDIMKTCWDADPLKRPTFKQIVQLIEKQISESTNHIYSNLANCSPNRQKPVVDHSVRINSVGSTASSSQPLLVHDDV
Chain of PLK1 (P53350 whole entry, species assumed): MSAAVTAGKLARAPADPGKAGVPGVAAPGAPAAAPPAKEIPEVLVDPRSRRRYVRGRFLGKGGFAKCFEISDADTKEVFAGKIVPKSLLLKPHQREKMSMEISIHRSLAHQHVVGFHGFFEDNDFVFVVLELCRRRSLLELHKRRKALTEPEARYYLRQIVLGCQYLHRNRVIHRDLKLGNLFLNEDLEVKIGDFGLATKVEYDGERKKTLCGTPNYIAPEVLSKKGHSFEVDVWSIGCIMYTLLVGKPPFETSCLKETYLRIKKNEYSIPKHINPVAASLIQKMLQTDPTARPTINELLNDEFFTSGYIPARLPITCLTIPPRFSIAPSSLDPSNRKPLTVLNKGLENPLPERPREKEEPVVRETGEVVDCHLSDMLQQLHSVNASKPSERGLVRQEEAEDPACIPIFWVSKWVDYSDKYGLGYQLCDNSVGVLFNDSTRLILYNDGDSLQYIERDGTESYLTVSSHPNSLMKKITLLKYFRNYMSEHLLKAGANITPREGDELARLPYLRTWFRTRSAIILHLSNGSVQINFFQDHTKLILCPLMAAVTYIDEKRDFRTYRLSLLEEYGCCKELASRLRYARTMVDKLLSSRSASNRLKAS
Chain of FYN (P06241 whole entry, species assumed): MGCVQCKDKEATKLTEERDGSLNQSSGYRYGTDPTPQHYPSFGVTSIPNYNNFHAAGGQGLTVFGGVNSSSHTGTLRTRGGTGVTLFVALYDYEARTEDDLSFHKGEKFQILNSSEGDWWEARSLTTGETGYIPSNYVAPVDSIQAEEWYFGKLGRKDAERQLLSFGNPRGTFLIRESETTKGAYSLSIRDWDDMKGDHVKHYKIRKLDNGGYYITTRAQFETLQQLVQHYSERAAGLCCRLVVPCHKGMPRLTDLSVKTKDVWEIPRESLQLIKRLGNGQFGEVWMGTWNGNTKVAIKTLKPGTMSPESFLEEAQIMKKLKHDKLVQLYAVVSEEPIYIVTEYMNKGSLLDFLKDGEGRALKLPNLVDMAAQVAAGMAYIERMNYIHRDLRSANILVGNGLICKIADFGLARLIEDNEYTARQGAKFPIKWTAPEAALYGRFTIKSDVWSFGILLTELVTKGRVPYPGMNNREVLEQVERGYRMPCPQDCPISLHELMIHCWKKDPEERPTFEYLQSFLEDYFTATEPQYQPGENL
Chain of RIPK3 (Q9Y572 whole entry, species assumed): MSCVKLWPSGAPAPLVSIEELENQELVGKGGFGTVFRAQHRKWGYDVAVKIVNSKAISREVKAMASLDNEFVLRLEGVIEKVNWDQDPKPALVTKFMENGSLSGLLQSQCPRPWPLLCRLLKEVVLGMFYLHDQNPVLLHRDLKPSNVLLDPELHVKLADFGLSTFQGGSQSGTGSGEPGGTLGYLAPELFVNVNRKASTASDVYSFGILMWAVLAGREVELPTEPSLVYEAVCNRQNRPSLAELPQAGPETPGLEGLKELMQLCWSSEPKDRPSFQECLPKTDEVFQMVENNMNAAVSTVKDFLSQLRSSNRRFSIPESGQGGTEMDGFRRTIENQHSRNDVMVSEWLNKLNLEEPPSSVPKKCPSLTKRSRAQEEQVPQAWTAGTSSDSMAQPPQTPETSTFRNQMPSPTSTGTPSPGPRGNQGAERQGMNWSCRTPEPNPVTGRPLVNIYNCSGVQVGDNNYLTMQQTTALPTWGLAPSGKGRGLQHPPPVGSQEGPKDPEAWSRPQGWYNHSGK
Chain of Aurora A (O14965 whole entry): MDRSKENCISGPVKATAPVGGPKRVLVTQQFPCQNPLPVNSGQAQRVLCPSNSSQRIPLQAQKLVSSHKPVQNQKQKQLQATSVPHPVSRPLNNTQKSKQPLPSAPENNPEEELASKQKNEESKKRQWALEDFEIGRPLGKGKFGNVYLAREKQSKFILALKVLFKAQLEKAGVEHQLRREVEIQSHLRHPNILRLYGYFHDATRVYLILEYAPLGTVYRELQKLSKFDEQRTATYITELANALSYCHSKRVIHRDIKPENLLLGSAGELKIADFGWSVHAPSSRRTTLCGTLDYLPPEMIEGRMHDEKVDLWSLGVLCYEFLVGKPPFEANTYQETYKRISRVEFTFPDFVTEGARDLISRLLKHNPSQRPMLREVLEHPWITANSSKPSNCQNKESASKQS
Chain of ERK1 (P27361 whole entry, species assumed): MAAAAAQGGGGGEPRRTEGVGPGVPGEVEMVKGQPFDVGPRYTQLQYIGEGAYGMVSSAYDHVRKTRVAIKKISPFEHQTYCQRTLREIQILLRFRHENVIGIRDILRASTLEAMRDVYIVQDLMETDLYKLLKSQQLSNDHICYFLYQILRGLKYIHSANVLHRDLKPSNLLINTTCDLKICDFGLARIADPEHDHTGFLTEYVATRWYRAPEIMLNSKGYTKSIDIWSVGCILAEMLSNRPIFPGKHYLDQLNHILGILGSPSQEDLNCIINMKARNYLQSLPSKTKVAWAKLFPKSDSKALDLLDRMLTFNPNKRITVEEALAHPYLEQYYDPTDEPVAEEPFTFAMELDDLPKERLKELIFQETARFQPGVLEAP

Cc1oncc1C(=O)Nc1ccc2cnc(-c3cc(N4CCN(C)CC4)cc(C(F)(F)F)c3)nc2c1 [Compound 7d, 5-methyl-N-(2-(3-(4-methylpiperazin-1-yl)-5-(trifluoromethyl)phenyl)quinazolin-7-yl)isoxazole-4-carboxamide]
inhibition at 10 µM (AXL): 21.2% | inhibition at 10 µM (Aurora A): 20.1% | inhibition at 10 µM (FLT1/VEGFR1): 5.23% | inhibition at 10 µM (FGFR3): 1% | IC50 (FLT3; read-out: FLT3 IC50): < 3000 nM | IC50 (FLT3; read-out: IC50 against FLT3): 106 nM | inhibition at 10 µM (ERK1): 15% | inhibition at 10 µM (RIPK3): 12.8% | inhibition at 10 µM (SYK): 22.4% | inhibition at 10 µM (EGFR): 0% | inhibition at 10 µM (PLK1): 0% | % inhibition rate (c-Kit): did not exhibit inhibitory activity | inhibition at 10 µM (c-Kit; read-out: % inhibition rate): 0% | IC50 (FLT3 (D835Y)): 228 nM | IC50 (FLT3 (F594_R595 ins EY)): 495 nM | IC50 (FLT3 (F594_R595 ins R)): 524 nM | IC50 [1]: 728 nM | inhibition at 10 µM (MEK1): 0% | inhibition at 10 µM (CAMKK1): 0% | inhibition at 10 µM (FYN): 19% | inhibition at 10 µM (IGF1R): 0%
